Laboratory results reported in US12343332B2, “Treatment of a bacterial vaginal infection” (Adamed Pharma S.A., priority 2017, dated 2025).
Values after ≈ are worked out from the molar mass of the structure shown. “Also recorded” adds a separate entry of the source. Read-outs that look alike come from different tables or passages of the source.

How the values were obtained:
Type in all cases: cell-based
[1] = test system: Atopobium vaginae ATCC BAA 55; test: MIC, macro dilution method for bacteria in a solid medium; details: for MIC: Fannyhessea vaginae, BAA55, 168 h, read-out: MIC value; for antibacterial activity (in words): against Atopobium vaginae
Description: (§1) Strains used in the study were Gardnerella vaginalis ATCC 14018, Atopobium vaginae ATCC BAA 55, Candida albicans ATCC 90028, and Candida [NT] 2001. […] To perform the assay, a pure, 48-hour strain reference culture was used, from which a bacterial suspension with a density of 1.0 McFarland in sterile saline was prepared. The suspension was plated onto Schaedler agar medium supplemented with 5% sheep blood (Becton Dickinson) and a test compound at the appropriate concentration. After incubation, the value MIC was read. Colony growth on the plate indicated no activity of the test compound at tested concentration. As the MIC value, the last lowest concentration as taken, at which there was no microbial growth. [table]

[2] = test system: Gardnerella vaginalis ATCC 14018; test: as above; details: for MIC: Gardnerella vaginalis, ATCC14018, 72 h, read-out: MIC value; for antibacterial activity (in words): against Gardnerella vaginalis
Description: as §1

[3] = test system: Candida albicans ATCC 90028; test: MIC, macro dilution method for yeast-like fungi in a liquid medium; details: for MIC: read-out: MIC value
Description: (§2) Strains used in the study were Gardnerella vaginalis ATCC 14018, Atopobium vaginae ATCC BAA 55, Candida albicans ATCC 90028, and Candida [NT] 2001. […] Liquid medium RPMI 1640 (Sigma-Aldrich) was used for fungi of the species Candida albicans ATCC 90028, and Candida [NT] 2001, in which 15 serial dilution were prepared in a range 500 μg/mL-0.03 μg/mL. From a pure 24-hour culture on Sabouraud solid medium, a fungal suspension having density of 0.5 McFarland in sterile saline. Next, the suspension was diluted, and was introduced into the RPMI 1640 medium yielding final concentrations of fungi 10^5 CFU/mL. Incubation was carried out for 24 hours in aerobic conditions in 37° C. Colony growth on the plate indicated no activity of the test compound at tested concentration. As the MIC value, the last lowest concentration as taken, at which there was no microbial growth

[4] = test system: Candida glabrata ATCC 2001; test: as above; details: for MIC: Nakaseomyces glabratus, read-out: MIC value
Description: as §2

[5] = test system: Atopobium vaginae ATCC BAA 55; test: Synergistic action at 2-fold lower concentrations than MIC, solid medium; details: for Synergy with Metronidazole / Synergy with Nystatin: Atopobium vaginae ATCC BAA 55, Furazidin 0.03 mg/L, Nitrofurantoin 0.98 mg/L, Nifuratel 1.95 mg/L; for Synergy with Metronidazole: Metronidazole 0.5 mg/L; for Synergy with Nystatin: Nystatin 250 mg/L; for synergistic effects with metronidazole (in words): against Atopobium vaginae
Description: (§3) To perform the assay, a pure, 48-hour strain reference culture was used, from which a bacterial suspension with a density of 1.0 McFarland in sterile saline was prepared. The suspension was plated onto Schaedler agar medium supplemented with 5% sheep blood (Becton Dickinson) and a test compound at the appropriate concentration. After incubation, the value MIC was read. Colony growth on the plate indicated no activity of the test compound at tested concentration. As the MIC value, the last lowest concentration as taken, at which there was no microbial growth. […] Lack of bacterial growth on the plate was interpreted as a synergic action. [table]

[6] = test system: Gardnerella vaginalis ATCC 14018; test: as above; details: for Synergy with Metronidazole / Synergy with Nystatin: Gardnerella vaginalis ATCC 14018, Furazidin 0.25 mg/L, Nitrofurantoin 0.5 mg/L, Nifuratel 0.98 mg/L; for Synergy with Metronidazole: Metronidazole 125 mg/L; for Synergy with Nystatin: Nystatin 250 mg/L; for synergistic effects with metronidazole (in words): against Gardnerella vaginalis
Description: as §3

[7] = test system: Candida albicans ATCC 90028; test: Synergistic action at 2-fold lower concentrations than MIC, liquid medium; details: for Synergy with Metronidazole / Synergy with Nystatin: Candida albicans ATCC 90028, each nitrofuran 250 mg/L; for Synergy with Metronidazole: Metronidazole 250 mg/L; for Synergy with Nystatin: Nystatin 0.98 mg/L
Description: (§4) Liquid medium RPMI 1640 (Sigma-Aldrich) was used for fungi of the species Candida albicans ATCC 90028, and Candida [NT] 2001, in which 15 serial dilution were prepared in a range 500 μg/mL-0.03 μg/mL. From a pure 24-hour culture on Sabouraud solid medium, a fungal suspension having density of 0.5 McFarland in sterile saline. Next, the suspension was diluted, and was introduced into the RPMI 1640 medium yielding final concentrations of fungi 10^5 CFU/mL. Incubation was carried out for 24 hours in aerobic conditions in 37° C. Colony growth on the plate indicated no activity of the test compound at tested concentration. As the MIC value, the last lowest concentration as taken, at which there was no microbial growth […] Lack of fungal growth on the plate was interpreted as a synergic action.

[8] = test system: Candida glabrata ATCC 2001; test: as above; details: for Synergy with Metronidazole / Synergy with Nystatin: Candida glabrata ATCC 2001, each nitrofuran 250 mg/L; for Synergy with Metronidazole: Metronidazole 125 mg/L; for Synergy with Nystatin: Nystatin 0.98 mg/L
Description: as §4

[9] = Atopobium vaginae ATCC BAA 55, Schaedler agar, anaerobic, 37° C., 7 days
[10] = Gardnerella vaginalis ATCC 14018, Schaedler agar, microaerophilic, 37° C., 72 hours
[11] = ATCC90028, Candida albicans ATCC 90028, RPMI 1640, 24 hours, aerobic, 37° C.
[12] = ATCC2001, Candida glabrata ATCC 2001, RPMI 1640, 24 hours, aerobic, 37° C.
[13] = Candida albicans ATCC 90028, RPMI 1640, 24 hours, aerobic, 37° C.
[14] = Candida glabrata ATCC 2001, RPMI 1640, 24 hours, aerobic, 37° C.

| SMILES | MIC value [1, 9] [mg/L] | MIC [1, 9] [µg/mL] | MIC value [2, 10] [mg/L] | MIC [2, 10] [µg/mL] | antibacterial activity (in words) [1] | antibacterial activity (in words) [2] | MIC [3, 11] [µg/mL] | MIC [4, 12] [µg/mL] | Synergy with Metronidazole [5] | Synergy with Nystatin [5] | synergistic effects with metronidazole (in words) [5] | Synergy with Metronidazole [6] | Synergy with Nystatin [6] | synergistic effects with metronidazole (in words) [6] | Synergy with Metronidazole [7] | Synergy with Nystatin [7] | Synergy with Metronidazole [8] | Synergy with Nystatin [8] | MIC value [3, 13] [mg/L] | MIC value [4, 14] [mg/L] | other results |
| --- | --- | --- | --- | --- | --- | --- | --- | --- | --- | --- | --- | --- | --- | --- | --- | --- | --- | --- | --- | --- | --- |
| CCC[C@@H]1C[C@@H](C(=O)N[C@@H]([C@H]2O[C@H](SC)[C@H](O)[C@@H](O)[C@H]2O)[C@H](C)Cl)N(C)C1 [Clindamycin] | <0.03 | < 0.03 | 1.95 (≈ 4.59 µM) | < 1.95 |  |  |  |  |  |  |  |  |  |  |  |  |  |  |  |  |  |
| O=C1CN(/N=C/C=C/c2ccc([N+](=O)[O-])o2)C(=O)N1 [Furazidin] | <0.03 | < 0.03 | 0.49 (≈ 1.85 µM) | < 0.49 | highest antibacterial activity in the group of nitrofuran derivatives | highest antibacterial activity in the group of nitrofuran derivatives | 500 (≈ 1890 µM) | 500 (≈ 1890 µM) | + | + | synergy; also recorded: synergistic effects | + | + | synergy; also recorded: synergistic effects | + | − | + | + |  |  | synergistic effects with nystatin (in words) ([5]; on Atopobium vaginae): synergistic effect; synergistic effects with nystatin (in words) ([6]; on Gardnerella vaginalis): synergistic effect; synergistic effects with metronidazole (in words) ([7]; against Candida albicans): synergy; synergistic effects with metronidazole (in words) ([8]; against Candida glabrata): synergy; synergistic effects with nystatin (in words) ([8]; against Candida glabrata): synergistic effects |
| Cc1ncc([N+](=O)[O-])n1CCO [Metronidazol, Metronidazole] |  | 0.98 (≈ 5.73 µM) |  | 250 (≈ 1460 µM) | antibacterial activity | antibacterial activity | 500 (≈ 2920 µM) | 250 (≈ 1460 µM) |  |  |  |  |  |  |  |  |  |  |  |  |  |
| CSCC1CN(/N=C/c2ccc([N+](=O)[O-])o2)C(=O)O1 (stereo not shown) [Nifuratel] |  |  |  |  | antibacterial activity | antibacterial activity |  |  | − | + |  | − | + |  | + | − | + | − |  |  | MIC [1]: 3.9 µg/mL (≈ 13.7 µM); MIC [2]: 1.95 µg/mL (≈ 6.84 µM); MIC ([3]; Candida albicans, ATCC90028, 24 h): > 500 µg/mL; MIC ([4]; ATCC2001, 24 h): 500 µg/mL (≈ 1750 µM) |
| O=C1CN(/N=C/c2ccc([N+](=O)[O-])o2)C(=O)N1 [Nitrofurantion, Nitrofurantoin] | 1.95 (≈ 8.19 µM) |  | 0.98 (≈ 4.11 µM) |  | antibacterial activity | antibacterial activity |  |  | + | + | synergistic effects | + | + | synergistic effects | + | − | + | − | 500 (≈ 2100 µM) | 500 (≈ 2100 µM) |  |
| C[C@@H]1[C@H](O)[C@@H](C)/C=C/C=C/CC/C=C/C=C/C=C/C=C/C(O[C@H]2O[C@H](C)[C@@H](O)[C@H](N)[C@@H]2O)CC2O[C@](O)(CC(O)C(O)CCC(O)CC(O)CC(O)CC(=O)O[C@H]1C)CC(O)C2C(=O)O (stereo partly shown) [Nystatin] | 500 (≈ 540 µM) |  | 500 (≈ 540 µM) |  |  |  |  |  |  |  |  |  |  |  |  |  |  |  | 1.98 (≈ 2.14 µM) | 1.98 (≈ 2.14 µM) |  |
